Source: PMC4552778 (European Journal of Drug Metabolism and Pharmacokinetics, 2014)
Numbered stars: 1 amine (or outer) side, 2 acyl side, 3 side chain; on linkers, the order of the positions; unused ones are H or OH. Bridge positions count the residues as written; N and C are the ends. Square brackets hold non-standard residues; d marks the D form. Peptide text beside a SMILES is read from it. * marks the point of attachment. hTyr(3S-OH,4S-OH,3'-OSO3H) = N[C@H](C(=O)O)[C@H](O)[C@@H](O)c1ccc(O)c(OS(=O)(=O)O)c1; Orn(4R-OH,5R-OH) = O=C([C@H](C[C@@H](O)[C@@H](O)N[*:3])N[*:1])[*:2]; Pro(3S-OH,4S-Me) = C[C@H]1CN[C@H](C(=O)O)[C@H]1O; X1 = CCCCCOc1ccc(-c2cc(-c3ccc(C(=O)*)cc3)no2)cc1; Gln(3R-OH) = NC(=O)C[C@@H](O)[C@H](N)C(=O)O; Hyp = O=C(O)[C@@H]1C[C@@H](O)CN1

Key:
Safety assessments = format: in vivo, human; settings: six AEs reported by four subjects of 19; single 100 mg IV dose
plasma protein = assay: Micafungin plasma protein binding by ultrafiltration; format: in vitro ADME, human; settings: 37 °C, range
[1] = test system: plasma protein, primarily albumin; settings: primarily to albumin; ref Astellas Pharma; Hebert et al. [2005b]; cited from earlier work
[2] = ref Dowell et al. [2007]; cited from earlier work

| Compound | Adverse events: seriousness and relation to drug (Safety assessments) | Protein binding (plasma protein; healthy subjects, measurable in three subjects) | Protein binding (plasma protein; subjects with severe hepatic dysfunction, measurable in five subjects) | Protein bound in plasma [1] [%] | Lower exposure in subjects with severe hepatic dysfunction compared with healthy controls [2] [%] |
| --- | --- | --- | --- | --- | --- |
| CCCCCOc1ccc(-c2cc(-c3ccc(C(=O)N[C@H]4C[C@@H](O)[C@@H](O)NC(=O)[C@@H]5[C@@H](O)[C@@H](C)CN5C(=O)[C@H]([C@H](O)CC(N)=O)NC(=O)[C@H]([C@H](O)[C@@H](O)c5ccc(O)c(OS(=O)(=O)O)c5)NC(=O)[C@@H]5C[C@@H](O)CN5C(=O)[C@H]([C@@H](C)O)NC4=O)cc3)no2)cc1 [micafungin, Micafungin] (X1-[Orn(4R-OH,5R-OH)]T[Hyp][hTyr(3S-OH,4S-OH,3'-OSO3H)][Gln(3R-OH)][Pro(3S-OH,4S-Me)]; lactam 1-C) | None of these AEs was considered to be serious or to be related to micafungin | 92.4–99.0% | 86.1–97.6% | > 99 | – |
| anidulafungin | – | – | – | – | 33 |
